Patent US12285416B2 (priority 2017, dated 2025)
Several values for one entry are separate records, joined by “and”; a condition that tells them apart may be missing. Identical values can stand only once. Like-named read-outs stand apart in the source and are kept apart here.

Assays:
[1] = tested on: rat left phrenic nerve-diaphragm preparation
[2] = tested on: rat left phrenic nerve-diaphragm preparation; remark: listed apart in the source
[3] = tested on: rat left phrenic nerve-diaphragm preparation; remark: listed apart in the source
[4] = tested on: anesthetized/ventilated rat; settings: in vivo
anesthetized rabbit = settings: in vivo, iv

`COc1cc2c3cc1Oc1cc(ccc1O)C[C@@H]1c4c(cc(OC)c(O)c4Oc4ccc(cc4)C[C@@H]3N(C)CC2)CC[N+]1(C)C` [d-tubocurarine, d-tubocurarine chloride hydrate] was tested, and the “Contraction Amplitude, Raw Values” [1] was 5.2 ± 0.8 g, the “Max Rate of Change, Raw Values” [1] was 106 ± 22 g/s and the “Contraction Amplitude, d-tubocurarine Raw Values” ([1]; hydrate) was 5.2 ± 0.9 g and 4.3 ± 0.5 g and 4.4 ± 1.1 g. The “Max Rate of Change, d-tubocurarine Raw Values” ([1]; hydrate) was 119 ± 31 g/s and 101 ± 20 g/s and 101 ± 35 g/s.

In the case of `CN1CCC[C@H]1c1cccnc1` [Nicotine, (−)-Nicotine detartrate], the “Contraction Amplitude, Raw Values” [2] was 10.8 ± 3.2 g and 9.7 ± 2.6 g, the “Max Rate of Change, Raw Values” [2] was 229 ± 97 g/s and 225 ± 102 g/s and 201 ± 94 g/s and the effect on contraction [2] was “depressed contraction”. For the same compound, the “effect on contraction and maximal rate of change” value [2] was “positive effect”.

For `C[C@@H]1O[C@H](C[N+](C)(C)C)C[C@H]1O` (racemic) [Muscarine, (±)-Muscarine chloride hydrate], the “effect on force and maximal rate of change” value [2] was “minimal or slight reduction of force, and maximal rate of change”, the “Contraction Amplitude, Raw Values” ([2]; hydrate) was 14.5 ± 1.4 g and 13.5 ± 1.2 g and 13.3 ± 1.2 g and 13.5 ± 1.3 g and the “Max Rate of Change, Raw Values” ([2]; hydrate) was 341 ± 45 g/s and 314 ± 45 g/s and 321 ± 41 g/s and 329 ± 39 g/s.

In the case of `CN(C)C(=O)Oc1cccc([N+](C)(C)C)c1` [Neostigmine], the “Contraction Amplitude, Neostigmine with d-tubocurarine Raw Values” [1] was 5.9 ± 0.8 g and 5.2 ± 0.6 g and 4.7 ± 1.2 g, the “Max Rate of Change, Neostigmine with d-tubocurarine Raw Values” [1] was 141 ± 30 g/s and 131 ± 21 g/s and 108 ± 39 g/s and the “Contraction Amplitude, Raw Values” [3] was 6.3 ± 0.5 g. For the same compound, the “Contraction Amplitude, Δ from 50% reduction with MMB4” value [3] was 0.6 g and 0.6 ± 0.1 g, the “Max Rate of Change, Raw Values” [3] was 153 ± 12 g/s and the “Max Rate of Change, Δ from 50% reduction with MMB4” value [3] was 20 ± 4 g/s.

With `CS(=O)(=O)[O-].[Na+]` [Sodium Methanesulfonate] the “Contraction Amplitude, Raw Values” [2] was 9.1 ± 0.8 g and 8.9 ± 0.8 g and 8.6 ± 0.8 g and 8.2 ± 0.7 g, the “Max Rate of Change, Raw Values” [2] was 211 ± 48 g/s and 214 ± 48 g/s and 210 ± 48 g/s and 197 ± 45 g/s and the effect on function [2] was “minimal effect on function”.

For pralidoxime chloride [2-PAM], the “effect on diaphragmatic function” value [4] was “depression”.

For Cisatracurium (Besilate salt), the “Diaphragmatic Force” value (anesthetized rabbit) was 5.4 ± 1.0 g, the “Diaphragmatic Force relative change from baseline” value (anesthetized rabbit) was −77 ± 6% and the HR (anesthetized rabbit) was 282 ± 7 bpm. The “HR relative change from baseline” value (anesthetized rabbit) was 0 ± 1%, the ITP (anesthetized rabbit) was 15.1 ± 0.6 mmHg and the “ITP relative change from baseline” value (anesthetized rabbit) was 7 ± 4%. For the same compound, the LVEDP (anesthetized rabbit) was 7.6 ± 1.1 mmHg, the “LVEDP relative change from baseline” value (anesthetized rabbit) was 17 ± 8% and the LVdP/dtmax (anesthetized rabbit) was 2760 ± 246 mmHg/s. The “LVdP/dtmax relative change from baseline” value (anesthetized rabbit) was −6 ± 3%, the MAP (anesthetized rabbit) was 63 ± 6 mmHg and the “MAP relative change from baseline” value (anesthetized rabbit) was −3 ± 3%. The “Skeletal Force” value (anesthetized rabbit) was 1.1 ± 0.5 g, the “Skeletal Force relative change from baseline” value (anesthetized rabbit) was −86 ± 5% and the tau (anesthetized rabbit) was 8.7 ± 0.2 ms. For the same compound, the “tau relative change from baseline” value (anesthetized rabbit) was 0 ± 1%, the “effect on cardiovascular function” value (anesthetized rabbit; 0.1 mg/kg) was “negligible effects in cardiovascular function” and the “effect on skeletal and diaphragmatic contractions” value (anesthetized rabbit; 0.1 mg/kg) was “reversible inhibition of skeletal and diaphragmatic contractions”.
